Tests used:
[1] = tested on: patients with Nonalcoholic Steatohepatitis; assay: Phase 3 trial in Nonalcoholic Steatohepatitis (Example 2): sex hormone levels; assay type: in vivo, human; details: for Estradiol (female) LS Mean Difference / Estradiol (male) LS Mean Difference / FSH (female) LS Mean Difference / FSH (male) LS Mean Difference / Free testosterone (female) LS Mean Difference / Free testosterone (male) LS Mean Difference / LH (female) LS Mean Difference / LH (male) LS Mean Difference / SHBG (female) LS Mean Difference in % CFB / SHBG (female) LS Mean Difference in CFB / SHBG (male) LS Mean Difference in % CFB / SHBG (male) LS Mean Difference in CFB / SHBG LS Mean Difference in % CFB / SHBG LS Mean Difference in CFB / Testosterone (female) LS Mean Difference / Testosterone (male) LS Mean Difference / Estradiol (female) LS Mean CFB (SE) / Estradiol (male) LS Mean CFB (SE) / FSH (female) LS Mean CFB (SE) / FSH (male) LS Mean CFB (SE) / Free testosterone (female) LS Mean CFB (SE) / Free testosterone (male) LS Mean CFB (SE) / LH (female) LS Mean CFB (SE) / LH (male) LS Mean CFB (SE) / SHBG (female) LS Mean % CFB (SE) / SHBG (female) LS Mean CFB (SE) / SHBG (male) LS Mean % CFB (SE) / SHBG (male) LS Mean CFB (SE) / SHBG LS Mean % CFB (SE) / SHBG LS Mean CFB (SE) / Testosterone (female) LS Mean CFB (SE) / Testosterone (male) LS Mean CFB (SE): Week 52
Experimental: (§1) A randomized, double-blind, placebo-controlled Phase 3 trial was conducted. Patients were randomly assigned to receive resmetirom 80 mg, resmetirom 100 mg, or placebo administered orally once daily. Screening biopsy results were used as baseline for histologic variables and a second biopsy was performed at Week 52.

[2] = tested on: patients with Nonalcoholic Steatohepatitis; assay: Phase 3 trial in Nonalcoholic Steatohepatitis (Example 2): thyroid hormone levels; assay type: in vivo, human; details: Resmetirom 80 mg, Week 52
Experimental: as §1

- FT3/rT3 CFB, LS Mean Difference from PBO [2]: 0.06
- FT3/rT3 LS Mean CFB (SE) [2]: 0.06 (0.004)
- FT3 CFB, LS Mean Difference from PBO [2]: 0.02 ng/L
- FT3 LS Mean CFB (SE) [2]: −0.01 (0.030) ng/L
- FT4 % CFB, LS Mean Difference from PBO [2]: −16.6%
- FT4 CFB, LS Mean Difference from PBO [2]: -0.19 ng/dL
- FT4 LS Mean % CFB (SE) [2]: −13.9 (0.96) %
- FT4 LS Mean CFB (SE) [2]: −0.17 (0.011) ng/dL
- TBG CFB, LS Mean Difference from PBO [2]: -1.9 mg/L
- TBG LS Mean CFB (SE) [2]: −0.32 (0.45) mg/L
- TSH CFB, LS Mean Difference from PBO [2]: −0.18 mIU/L
- TSH LS Mean CFB (SE) [2]: −0.28 (0.059) mIU/L
- rT3 CFB, LS Mean Difference from PBO [2]: -4.73 ng/dL
Structure (SMILES): CC(C)c1cc(Oc2c(Cl)cc(-n3nc(C#N)c(=O)[nH]c3=O)cc2Cl)n[nH]c1=O [Resmetirom, 2-[3,5-dichloro-4-[(6-oxo-5-propan-2-yl-1H-pyridazin-3-yl)oxy]phenyl]-3,5-dioxo-1,2,4-triazine-6-carbonitrile]
- Estradiol (female) LS Mean Difference ([1]; Resmetirom 80 mg from PBO): 15.9 ng/L
- Estradiol (male) LS Mean Difference ([1]; Resmetirom 80 mg from PBO): 9.0 ng/L
- FSH (female) LS Mean Difference ([1]; Resmetirom 80 mg from PBO): 0.79 mIU/mL
- FSH (male) LS Mean Difference ([1]; Resmetirom 80 mg from PBO): 1.1 mIU/mL
- Free testosterone (female) LS Mean Difference ([1]; Resmetirom 80 mg from PBO): 0 nmol/L
- Free testosterone (male) LS Mean Difference ([1]; Resmetirom 80 mg from PBO): 0.02 nmol/L
- LH (female) LS Mean Difference ([1]; Resmetirom 80 mg from PBO): −0.33 mIU/mL
- LH (male) LS Mean Difference ([1]; Resmetirom 80 mg from PBO): 1.8 mIU/mL
- SHBG (female) LS Mean Difference in % CFB ([1]; Resmetirom 80 mg from PBO): 177.4%
- SHBG (female) LS Mean Difference in CFB ([1]; Resmetirom 80 mg from PBO): 73.3 nmol/L
- SHBG (male) LS Mean Difference in % CFB ([1]; Resmetirom 80 mg from PBO): 107.3%
- SHBG (male) LS Mean Difference in CFB ([1]; Resmetirom 80 mg from PBO): 40.4 nmol/L
- SHBG LS Mean Difference in % CFB ([1]; Resmetirom 80 mg from PBO): 148.5%
- SHBG LS Mean Difference in CFB ([1]; Resmetirom 80 mg from PBO): 58.9 nmol/L
- Testosterone (female) LS Mean Difference ([1]; Resmetirom 80 mg from PBO): 0.15 µg/L
- Testosterone (male) LS Mean Difference ([1]; Resmetirom 80 mg from PBO): 2.2 µg/L
- Estradiol (female) LS Mean CFB (SE) ([1]; Resmetirom 80 mg): 17.7 (8.0) ng/L
- Estradiol (male) LS Mean CFB (SE) ([1]; Resmetirom 80 mg): 8.9 (1.3) ng/L
- FSH (female) LS Mean CFB (SE) ([1]; Resmetirom 80 mg): −0.54 (0.89) mIU/mL
- FSH (male) LS Mean CFB (SE) ([1]; Resmetirom 80 mg): 1.1 (0.24) mIU/mL
- Free testosterone (female) LS Mean CFB (SE) ([1]; Resmetirom 80 mg): 0 (0.001) nmol/L
- Free testosterone (male) LS Mean CFB (SE) ([1]; Resmetirom 80 mg): 0.04 (0.009) nmol/L
- LH (female) LS Mean CFB (SE) ([1]; Resmetirom 80 mg): −0.93 (0.69) mIU/mL
- LH (male) LS Mean CFB (SE) ([1]; Resmetirom 80 mg): 1.7 (0.30) mIU/mL
- SHBG (female) LS Mean % CFB (SE) ([1]; Resmetirom 80 mg): 193.0 (15.3) %
- SHBG (female) LS Mean CFB (SE) ([1]; Resmetirom 80 mg): 74.1 (6.0) nmol/L
- SHBG (male) LS Mean % CFB (SE) ([1]; Resmetirom 80 mg): 108.0 (11.2) %
- SHBG (male) LS Mean CFB (SE) ([1]; Resmetirom 80 mg): 41.9 (4.2) nmol/L
- SHBG LS Mean % CFB (SE) ([1]; Resmetirom 80 mg): 157.5 (10.2) %
- SHBG LS Mean CFB (SE) ([1]; Resmetirom 80 mg): 60.2 (4.0) nmol/L
- Testosterone (female) LS Mean CFB (SE) ([1]; Resmetirom 80 mg): 0.15 (0.019) ug/L
- Testosterone (male) LS Mean CFB (SE) ([1]; Resmetirom 80 mg): 2.6 (0.26) ug/L
- Estradiol (female) LS Mean Difference ([1]; Resmetirom 100 mg from PBO): 28.8 ng/L
- Estradiol (male) LS Mean Difference ([1]; Resmetirom 100 mg from PBO): 11.2 ng/L
- FSH (female) LS Mean Difference ([1]; Resmetirom 100 mg from PBO): 2.0 mIU/mL
- FSH (male) LS Mean Difference ([1]; Resmetirom 100 mg from PBO): 1.7 mIU/mL
- Free testosterone (female) LS Mean Difference ([1]; Resmetirom 100 mg from PBO): 0 nmol/L
- Free testosterone (male) LS Mean Difference ([1]; Resmetirom 100 mg from PBO): 0.01 nmol/L
- LH (female) LS Mean Difference ([1]; Resmetirom 100 mg from PBO): 1.4 mIU/mL
- LH (male) LS Mean Difference ([1]; Resmetirom 100 mg from PBO): 2.0 mIU/mL
- SHBG (female) LS Mean Difference in % CFB ([1]; Resmetirom 100 mg from PBO): 236.2%
- SHBG (female) LS Mean Difference in CFB ([1]; Resmetirom 100 mg from PBO): 93.2 nmol/L
- SHBG (male) LS Mean Difference in % CFB ([1]; Resmetirom 100 mg from PBO): 173.3%
- SHBG (male) LS Mean Difference in CFB ([1]; Resmetirom 100 mg from PBO): 59.3 nmol/L
- SHBG LS Mean Difference in % CFB ([1]; Resmetirom 100 mg from PBO): 208.4%
- SHBG LS Mean Difference in CFB ([1]; Resmetirom 100 mg from PBO): 79.4 nmol/L
- Testosterone (female) LS Mean Difference ([1]; Resmetirom 100 mg from PBO): 0.19 µg/L
- Testosterone (male) LS Mean Difference ([1]; Resmetirom 100 mg from PBO): 3.0 µg/L
- Estradiol (female) LS Mean CFB (SE) ([1]; Resmetirom 100 mg): 30.6 (8.3) ng/L
- Estradiol (male) LS Mean CFB (SE) ([1]; Resmetirom 100 mg): 11.0 (1.3) ng/L
- FSH (female) LS Mean CFB (SE) ([1]; Resmetirom 100 mg): 0.63 (0.92) mIU/mL
- FSH (male) LS Mean CFB (SE) ([1]; Resmetirom 100 mg): 1.7 (0.24) mIU/mL
- Free testosterone (female) LS Mean CFB (SE) ([1]; Resmetirom 100 mg): 0 (0.001) nmol/L
- Free testosterone (male) LS Mean CFB (SE) ([1]; Resmetirom 100 mg): 0.03 (0.009) nmol/L
- LH (female) LS Mean CFB (SE) ([1]; Resmetirom 100 mg): 0.80 (0.72) mIU/mL
- LH (male) LS Mean CFB (SE) ([1]; Resmetirom 100 mg): 1.9 (0.30) mIU/mL
- SHBG (female) LS Mean % CFB (SE) ([1]; Resmetirom 100 mg): 251.8 (16.0) %
- SHBG (female) LS Mean CFB (SE) ([1]; Resmetirom 100 mg): 94.0 (6.3) nmol/L
- SHBG (male) LS Mean % CFB (SE) ([1]; Resmetirom 100 mg): 174.0 (10.9) %
- SHBG (male) LS Mean CFB (SE) ([1]; Resmetirom 100 mg): 60.8 (4.1) nmol/L
- SHBG LS Mean % CFB (SE) ([1]; Resmetirom 100 mg): 217.4 (10.3) %
- SHBG LS Mean CFB (SE) ([1]; Resmetirom 100 mg): 80.7 (4.1) nmol/L
- Testosterone (female) LS Mean CFB (SE) ([1]; Resmetirom 100 mg): 0.19 (0.020) ug/L
- Testosterone (male) LS Mean CFB (SE) ([1]; Resmetirom 100 mg): 3.5 (0.25) ug/L
- Change in sex hormones from baseline ([1]; in vivo): unchanged, except for SHBG increases
